What all share (design): human FES cDNA encoding residues 448–822 or human FER cDNA encoding residues 448–820 was amplified by PCR; made in house; host or cells: E. coli BL21(DE3), co-expressing YopH phosphatase
Test [1] has as its target T1, FES^S700C (Homo sapiens, UniProt P07332, S700C). The test can be described thus: In vitro TR-FRET kinase assay. Format: biochemical. The settings on record: TR-FRET assay, 5 µM ATP; n = 3; read-out: pIC50 FES^S700C (converted). On the technique in general: TR-FRET usually uses a lanthanide donor and a delayed reading to cut background.
The target of test [2] is T1, FES^S700C. Put plainly: PamChip microarray peptide phosphorylation. Format: biochemical. As to conditions: for Mean signal, time course: Figure 7f, S700C + WEL028, n 3; for Relative phosphorylation (% of highest signal): peptide substrate phosphorylated by FES - S700C.
Test [3] deals with T1, FES^S700C. The test can be described thus: MS identification of covalent inhibitor-peptide adduct. As to conditions: 1 μM, 30 min, rt. The procedure:
Purified FES^S700C (1.2 μg in 38 μL) was treated with WEL028 (2 μL of 20× concentrated stock in DMSO, 1 μM final concentration) or vehicle (as negative control) for 30 min at rt. […] Gel was stained using Coomassie Brilliant Blue R-250, bands were cut out of gel into small blocks and then destained in 500 μL of 50% MeOH in 100 mM NH4HCO3 pH 8.0 for 10 min at rt. Acetonitrile (500 μL) was added for gel blocks dehydration, after which gel blocks were digested with sequencing-grade trypsin (Promega) in 250 μL trypsin buffer (100 mM Tris pH 7.5, 100 mM NaCl, 1 mM CaCl2, 10% acetonitrile) overnight at 37 °C with vigorous shaking. […] Samples were subsequently desalted using StageTips with C18 material. […]
Tryptic peptides were analyzed on a Surveyor nano-LC system (Thermo) hyphenated to a LTQ-Orbitrap mass spectrometer (Thermo) (n = 1)[69]. […] Samples of 10 µl were separated via a trap-elute setup at 250 nL/min flow and analyzed by data-dependent acquisition of one full scan/ top 3 method. For shotgun proteomics, fragmented precursor ions measured twice within 10 s were dynamically excluded for 60 s and ions with z < 2 or unassigned charges were not analyzed. Peptide ID was determined with the Mascot search engine. […]

T1 sequence (P07332 448-822 S700C): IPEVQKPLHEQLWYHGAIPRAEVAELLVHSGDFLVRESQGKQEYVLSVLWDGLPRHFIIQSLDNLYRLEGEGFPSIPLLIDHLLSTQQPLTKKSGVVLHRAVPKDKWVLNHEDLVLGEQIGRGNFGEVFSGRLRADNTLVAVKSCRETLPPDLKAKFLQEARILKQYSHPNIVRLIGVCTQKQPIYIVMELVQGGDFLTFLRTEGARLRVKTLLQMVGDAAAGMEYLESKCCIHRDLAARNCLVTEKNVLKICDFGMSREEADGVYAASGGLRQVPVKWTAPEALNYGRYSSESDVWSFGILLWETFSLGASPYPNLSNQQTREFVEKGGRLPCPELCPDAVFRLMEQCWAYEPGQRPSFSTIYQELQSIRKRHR

Turning to `C#CCOc1ccc(Nc2ncc(Cl)c(Nc3ccccc3NC(=O)C=C)n2)c(OC)c1` [Compound 6], the IC50 in test [1] was 3.98 nM. Moreover, the “Mean signal, time course” value in test [2] (time 0 min) is -48.0; in test [2] (time 5 min) it was -46.0; in test [2] (time 10 min), -41.0; in test [2] (time 15 min), -40.0; in test [2] (time 20 min) it was -38.0; in test [2] (time 25 min) it was -35.0. In addition, the “Mean signal, time course” value in test [2] (time 30 min) is listed as -33.0; in test [2] (time 35 min), -32.0; in test [2] (time 40 min) it was -32.0; in test [2] (time 45 min), -30.0; in test [2] (time 50 min), -26.0; in test [2] (time 55 min), -29.0. For the same compound, the “Mean signal, time course” value in test [2] (time 60 min) is -29.0. Also, the ZAP70 peptide phosphorylation result in test [2] (WEL028 100 nM) is “abolished peptide phosphorylation”. The “Covalent adduct by LC-MS/MS” value in test [3] was “covalent addition of WEL028 to Cys700”.

“VGFR2_1168_1180 (AQQDGKDYIVLPI; UniProt P35968 1168-1180, looked up, fragment)”: the “Relative phosphorylation (% of highest signal)” value in test [2] is given as 9.5 % of highest signal.

On to “VGFR2_1207_1219_C1208S (VSDPKFHYDNTAG; UniProt P35968 1207-1219, looked up, variant C1208S)”, for which, in test [2], the “Relative phosphorylation (% of highest signal)” value is listed as 1.3 % of highest signal.

As for “VGFR3_1061_1073 (DIYKDPDYVRKGS; UniProt P35916 1061-1073, looked up, fragment)”, the “Relative phosphorylation (% of highest signal)” value in test [2] is listed as 0.1 % of highest signal.

On to “VINC_815_827 (KSFLDSGYRILGA; UniProt P18206 815-827, looked up, fragment)”, for which the “Relative phosphorylation (% of highest signal)” value in test [2] is recorded as 0.6 % of highest signal.

Consider “ZAP70_485_497 (ALGADDSYYTARS; UniProt P43403 485-497, looked up, fragment)”, for which the “Relative phosphorylation (% of highest signal)” value in test [2] is recorded as 7.2 % of highest signal.

Take “ZBT16_621_633 (LRTHNGASPYQCT; UniProt Q05516 621-633, looked up, fragment)”: in test [2], the “Relative phosphorylation (% of highest signal)” value was 1.1 % of highest signal.

Values taken from publication PMC7316778 (Nature Communications, 2020).
